Earlier results as cited in patent publication US8383697B2 (priority 2009, dated 2013).

Key:
[1] = test system: rats; conditions: in vivo
[2] = in vivo

Structure (SMILES)	Rat Oral LD50 [1]	LD50 [2]
O=C(OOC(=O)c1ccccc1)c1ccccc1 [Initiator VII, benzoyl peroxide]	7,710 mg/kg	
CC(C)(C)OOC(C)(C)C [Initiator X, tert-butyl peroxide]	25,000 mg/kg	
CCCCCCCCCCCC(=O)OOC(=O)CCCCCCCCCCC [Initiator VIII, lauroyl peroxide]	10,000 mg/kg	
CC(C)(C)OOC(=O)c1ccccc1 [Initiator XI, tert-butyl peroxybenzoate]	4,160 mg/kg	
CCO [ethanol]		7060 mg/kg
